Assays:
[1] = test system: IL1β-induced IL8 release in THP1 cells; test: IRAK IL8 secretion functional assay; assay type: cell-based; conditions: Homo sapiens; THP-1 cells, IL1β 100 ng/ml overnight, IL8 by HTRF; read-out: IC50, Secretion THP-1/IL-β induced IL8 release
Text: IRAK IL8 Secretion Functional Assay:
THP1 cells are human monocytes derived from acute monocytic leukemia. IL1β receptor expressed on the surface membrane of THP1 cells induced IL8 release. IRAKs are kinase signaling downstream of TLRs and TNF, IL-18, IL-33 and IL-1 receptors.
In cells, IRAK4 is upstream of IRAK1.
The Human IL8 Kit, provided by CysBio International based in Bagnols/Cèze FR, allows for the quantitative determination of IL-8 in cell-culture supernatants.
Anti-cytokine IL8 antibodies are respectively labeled with europium Cryptate and XL665. Upon their binding to IL-8 molecules, the two antibodies come into close proximity, allowing FRET (Fluorescence Resonance Energy Transfer) to occur. This FRET increases proportionally to IL-8 concentrations and be converted in IL8 pg amounts.
THP-1 cells are seeded on Day 1 in 384 well plate with RPMI 1640 at a density of 30 000 cells/well. Compounds 4×/2% DMSO (range of concentrations from 20 μM to 1 nM) and IL1β 4× at 100 ng/ml final are added to cells overnight at 37° C., 5% CO2. Measurement of IL-8 secretion is done by mixing on Day2 10 μl of supernatant with 10 μl of a mix solution of europium Cryptate and XL665 (v:v) as described by supplier.
HTRF (homogeneous time resolved fluorescence) signal is measured after 3 hours incubation time at 30° C. with a BMG Pherastar reader or equivalent.

IRAK1/4 human = test system: T1, IRAK1/4 human; test: IRAK1/4 phosphorylation IC50 (enzymatic assay, table 2); assay type: biochemical; conditions: human IRAK1/4 phosphorylation
T1 construct: fused on or other part: His tag and TEV cleavage site at the N-terminus
Procedure, shortened: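 In 384-well plates, reactions in 50 mM Hepes pH7.0 buffer with MgCl2, DTT, EGTA and BSA combined ATP, compounds in DMSO at 20 µM to 1 nM, and either His-TEV-tagged human IRAK-1 or His-TEV-tagged human IRAK-4 plus STK1-biotin peptide. They ran for 2 or 3 hours alongside 2% DMSO controls. Each value is an IC50 for inhibition.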

| Compound | IC50 [1] [µM] | IC50 (IRAK1/4 human) [µM] |
| --- | --- | --- |
| O=C(c1ccc(-n2cc(-c3n[nH]c4ccccc34)nn2)cc1)N1CCCCC1 [Example 38, 3-{1-[4-(piperidin-1-ylcarbonyl)phenyl]-1H-1,2,3-triazol-4-yl}-1H-indazole] | 0.1 to 1 | 1 to 5 |
| CC(=O)N1CCN(C(=O)c2ccc(-n3cc(-c4n[nH]c5ccccc45)nn3)cc2)CC1 [Example 39, 3-(1-{4-[(4-acetylpiperazin-1-yl)carbonyl]phenyl}-1H-1,2,3-triazol-4-yl)-1H-indazole] | 0.1 to 1 | 0.1 to 1 |
| O=C(NCCCN1CCCC1)c1ccc(-n2cc(-c3n[nH]c4ccccc34)nn2)cc1 [Example 40, 4-[4-(1H-indazol-3-yl)-1H-1,2,3-triazol-1-yl]-N-(3-pyrrolidin-1-ylpropyl)benzamide] | 0.1 to 1 | 0.1 to 1 |
| CCN(CC)CCCNC(=O)c1ccc(-n2cc(-c3n[nH]c4ccccc34)nn2)cc1 [Example 42, N-[3-(diethylamino)propyl]-4-[4-(1H-indazol-3-yl)-1H-1,2,3-triazol-1-yl]benzamide] | 0.1 to 1 | 0.1 to 1 |
| CN(CCc1ccncc1)C(=O)c1ccc(-n2cc(-c3n[nH]c4ccccc34)nn2)cc1 [Example 43, 4-[4-(1H-indazol-3-yl)-1H-1,2,3-triazol-1-yl]-N-methyl-N-(2-pyridin-4-ylethyl)benzamide] | 0.1 to 1 | 0.1 to 1 |
| O=C(NCCN1CCCCC1)c1ccc(-n2cc(-c3n[nH]c4ccccc34)nn2)cc1 [Example 44, 4-[4-(1H-indazol-3-yl)-1H-1,2,3-triazol-1-yl]-N-(2-piperidin-1-ylethyl)benzamide] | 0.1 to 1 | 0.1 to 1 |
| CN1CCCN(C(=O)c2ccc(-n3cc(-c4n[nH]c5ccccc45)nn3)cc2)CC1 [Example 48, 3-(1-{4-[(4-methyl-1,4-diazepan-1-yl)carbonyl]phenyl}-1H-1,2,3-triazol-4-yl)-1H-indazole] | 0.1 to 1 | 0.1 to 1 |
| CCNC(=O)c1ccc(-n2cc(-c3n[nH]c4ccccc34)nn2)cc1 [Example 49, N-ethyl-4-[4-(1H-indazol-3-yl)-1H-1,2,3-triazol-1-yl]benzamide] | 0.1 to 1 | 0.1 to 1 |
| COCCNC(=O)c1ccc(-n2cc(-c3n[nH]c4ccccc34)nn2)cc1 [Example 50, 4-[4-(1H-indazol-3-yl)-1H-1,2,3-triazol-1-yl]-N-(2-methoxyethyl)benzamide] | 0.1 to 1 | 0.1 to 1 |
| O=C(NCc1ccco1)c1ccc(-n2cc(-c3n[nH]c4ccccc34)nn2)cc1 [Example 51, N-(2-furylmethyl)-4-[4-(1H-indazol-3-yl)-1H-1,2,3-triazol-1-yl]benzamide] | 1 to 5 | 0.1 to 1 |
| CCN1CCN(C(=O)c2ccc(-n3cc(-c4n[nH]c5ccccc45)nn3)cc2)CC1 [Example 52, 3-(1-{4-[(4-ethylpiperazin-1-yl)carbonyl]phenyl)-1H-1,2,3-triazol-4-yl)-1H-indazole] | 0.1 to 1 | 0.1 to 1 |
| O=C(NC1CC1)c1ccc(-n2cc(-c3n[nH]c4ccccc34)nn2)cc1 [Example 53, N-cyclopropyl-4-[4-(1H-indazol-3-yl)-1H-1,2,3-triazol-1-yl]benzamide] | 0.1 to 1 | 0.1 to 1 |
| CNC(=O)c1ccc(-n2cc(-c3n[nH]c4ccccc34)nn2)cc1 [Example 54, 4-[4-(1H-indazol-3-yl)-1H-1,2,3-triazol-1-yl]-N-methylbenzamide] | 0.1 to 1 | 0.1 to 1 |
| O=C(NCC1CC1)c1ccc(-n2cc(-c3n[nH]c4ccccc34)nn2)cc1 [Example 55] | 0.1 to 1 | 0.1 to 1 |
| CCN1CCN(C(=O)c2cccc(-n3cc(-c4n[nH]c5ccccc45)nn3)c2)CC1 [Example 60, 3-(1-{3-[(4-ethylpiperazin-1-yl)carbonyl]phenyl}-1H-1,2,3-triazol-4-yl)-1H-indazole] | 1 to 5 | 1 to 5 |
| O=C(c1ccc(-n2cc(-c3n[nH]c4ccccc34)nn2)cc1)N1CCC(O)CC1 [Example 71, 1-{4-[4(1H-indazol-3-yl)-1H-1,2,3-triazol-1-yl]benzoyl}piperidin-ol] | 0.1 to 1 | 0.1 to 1 |
| CN(C)C1CCN(C(=O)c2ccc(-n3cc(-c4n[nH]c5ccccc45)nn3)cc2)CC1 [Example 72, 1-{4-[4-(1H-indazol-3-yl)-1H-1,2,3-triazol-1-yl]benzoyl}-N,N-dimethylpiperidin-4-amine] | < 0.1 | 0.1 to 1 |

| Compound | IC50 [1] [µM] | IC50 (IRAK1/4 human) [µM] |
| --- | --- | --- |
| O=C(c1ccc(-n2cc(-c3n[nH]c4ccccc34)nn2)cc1)N1CCCC(C(=O)N2CCCC2)C1 (stereo not drawn) [Example 73, 3-[1-(4-{[3-(pyrrolidin-1-ylcarbonyl)piperidin-1-yl]carbonyl}phenyl)-1H-1,2,3-triazol-4-yl]-1H-indazole] | < 0.1 | 0.1 to 1 |
| O=C(c1ccc(-n2cc(-c3n[nH]c4ccccc34)nn2)cc1)N1CCCC(CN2CCOCC2)C1 (stereo not drawn) [Example 74] | 0.1 to 1 | 0.1 to 1 |
| O=C1CCCN1CC1CCCN(C(=O)c2ccc(-n3cc(-c4n[nH]c5ccccc45)nn3)cc2)C1 (stereo not drawn) [Example 75, 1-[(1-{4-[4-(1H-indazol-3-yl)-1H-1,2,3-triazol-1-yl]benzoyl}piperidin-3-yl)methyl]pyrrolidin-2] | 0.1 to 1 | 0.1 to 1 |
| CN1CCCC2(CCCN(C(=O)c3ccc(-n4cc(-c5n[nH]c6ccccc56)nn4)cc3)C2)C1 (stereo not drawn) [Example 76, 2-{4-[4-(1H-indazol-3-yl)-1H-1,2,3-triazol-1-yl]benzoyl}-8-methyl-2,8-diazaspiro[5.5]undecane] | < 0.1 | < 0.1 |
| CN1CCCC(CNC(=O)c2ccc(-n3cc(-c4n[nH]c5ccccc45)nn3)cc2)C1 (stereo not drawn) [Example 77, 4-[4-(1H-indazol-3-yl)-1H-1,2,3-triazol-1-yl]-N-[(1-methylpiperidin-3-yl)methyl]benzamide] | 0.1 to 1 | 0.1 to 1 |
| CN1CCN(C(=O)Cc2cccc(-n3cc(-c4n[nH]c5ccccc45)nn3)c2)CC1 [Example 79, 3-(1-{3-[2-(4-methylpiperazin-1-yl)-2-oxoethyl]phenyl}-1H-1,2,3-triazol-4-yl)-1H-indazole] | 1 to 5 | 1 to 5 |
| c1cc(CCN2CCOCC2)cc(-n2cc(-c3n[nH]c4ccccc34)nn2)c1 [Example 80, 3-{1-[3-(2-morpholin-4-ylethyl)phenyl]-1H-1,2,3-triazol-4-yl}-1H-indazole] | 1 to 5 | 1 to 5 |
| O=C(c1ccc(-n2cc(-c3n[nH]c4ccccc34)nn2)cc1F)N1CCOCC1 [Example 81, 3-{1-[3-fluoro-4-(morpholin-4-ylcarbonyl)phenyl]-1H-1,2,3-triazol-4-yl}-1H-indazole] | 0.1 to 1 | 0.1 to 1 |
| O=C(Cc1cccc(-n2cc(-c3n[nH]c4ccccc34)nn2)c1)N1CCCC1 [Example 82, 3-{1-[3-(2-oxo-2-pyrrolidin-1-ylethyl)phenyl]-1H-1,2,3-triazol-4-yl}-1H-indazole] | 1 to 5 | 1 to 5 |
| c1cc(CCN2CCCC2)cc(-n2cc(-c3n[nH]c4ccccc34)nn2)c1 [Example 83, 3-{1-[3-(2-pyrrolidin-1-ylethyl)phenyl]-1H-1,2,3-triazol-4-yl}-1H-indazole] | 0.1 to 1 | 1 to 5 |
| O=C(c1ccc(-n2cc(-c3n[nH]c4ccc(C5CCNCC5)cc34)nn2)cc1)N1CCOCC1 [Example 84, 3-{1-[4-(morpholin-4-ylcarbonyl)phenyl]-1H-1,2,3-triazol-4-yl}-5-piperidin-4-yl-1H-indazole] | 1 to 5 | < 0.1 |
| c1cc(CCCN2CCOCC2)cc(-n2cc(-c3n[nH]c4ccccc34)nn2)c1 [Example 86, 3-{1-[3-(3-morpholin-4-ylpropyl)phenyl]-1H-1,2,3-triazol-4-yl}-1H-indazole] | 1 to 5 | 1 to 5 |
| c1cc(CCCN2CCCC2)cc(-n2cc(-c3n[nH]c4ccccc34)nn2)c1 [Example 88, 3-{1-[3-(3-pyrrolidin-1-ylpropyl)phenyl]-1H-1,2,3-triazol-4-yl}-1H-indazole] | 0.1 to 1 | 1 to 5 |
| O=C(c1ccc(-n2cc(-c3n[nH]c4ccccc34)nn2)cc1Cl)N1CCOCC1 [Example 89, 3-{1-[3-chloro-4-(morpholin-4-ylcarbonyl)phenyl]-1H-1,2,3-triazol-4-yl}-1H-indazole] | 1 to 5 | 0.1 to 1 |
| CN(C)CC1CCN(C(=O)c2ccc(-n3cc(-c4n[nH]c5ccccc45)nn3)cc2)CC1 [Example 91, 1-(1-{4-[4(1H-indazol-3-yl)-1H-1,2,3-triazol-1-yl]benzoyl}piperidin-4-yl)-N,N-dimethylmethanamine] | 0.1 to 1 | 0.1 to 1 |
| CN(C)CCC1CCCCN1C(=O)c1ccc(-n2cc(-c3n[nH]c4ccccc34)nn2)cc1 (stereo not drawn) [Example 92] | 0.1 to 1 | 0.1 to 1 |
